According to patent publication US7935708B2, “Dihydropyrazolopyrimidinone derivatives” (MSD K.K., priority 2006, dated 2011):

Columns and labels:
[1] = system: Cdc2 (Cdk1) tyrosine 15 phosphorylation in WiDr cells; experiment: Cdc2 (Cdk1) tyrosine 15-phosphorylation-inhibitory effect in gemcitabine-treated WiDr cells (ELISA); format: cell-based; settings: Homo sapiens, gemcitabine 100 nM 24 hours, then test compound with nocodazole 8 hours, read-out: Cdc2-Y15 Phosphorylation-Inhibitory Effect (WiDr, + gemcitabine) (EC50)
Source text: (§1) Pharmaceutical Text 2 (Method of Determining Drug Potency in Cells (Cdc2 (Cdk1) Tyrosine 15-Phosphorylation-Inhibitory Effect))
(§2) Fetal bovine serum (FBS) was obtained from Morgate; media RPMI1640 and DMEM were from Invitrogen; camptothecin was from Sigma; gemcitabine was from Nippon Eli Lilly; nocodazole and protease inhibitor cocktail were from Sigma; rabbit anti-Cdc2 antibody and mouse anti-Cdc2 antibody were from Santa Cruz Biotechnology; rabbit anti-tyrosine 15-phosphorylated Cdc2 antibody and horseradish peroxidase-labeled anti-mouse IgG antibody were from Cell Signaling Technology; sure blue reserve TMB peroxidase substrate was from Kirkegaard and Perry Laboratories.
(§3) Human non-small cell lung cancer cells (NCI-H1299) and human colon cancer cells (WiDr) were obtained from American Type Culture Collection (ATCC).
(§4) c) Method of Effect Determination:
In the method of using WiDr cells, the cells were suspended in DMEM containing 10% FBS, and the cell suspension was applied to a 96-well Nunclondelta-processed plastic plate in an amount of 2000 cells/100 μL/well, in which the cells were incubated overnight in 5% CO2-95% air at 37° C. Gemcitabine was dissolved in PBS, and diluted with DMEM containing 10% FBS, and then this was applied to the plate on which the cells had been previously sowed, in an amount of 50 μL/well in such a manner that the final concentration of gemcitabine could be 100 nM. Then, the cells were incubated for 24 hours at 37° C. in 5% CO2-95% air. The test compound was stepwise diluted with DMSO, then diluted with 1200 nM nocodazole-containing DMEM containing 10% FBS, and applied to the plate on which the gemcitabine-treated cells had been sowed, in an amount of 50 μL/well. The cells were incubated for 8 hours at 37° C. in 5% CO2-95% air, then the culture was removed, and a cytolytic buffer was added to the plate in an amount of 100 μL/well, shaken at 4° C. for 2 hours, then frozen at −80° C., and melted to give a cell solution. Cdc2 and tyrosine 15-phosphorylated Cdc2 in the cell solution were determined through ELISA, and the ratio of tyrosine 15-phosphorylated Cdc2 to Cdc2 was calculated to obtain the 50% phosphorylation-inhibitory concentration of the test compound to the cells (EC50, nM). Cdc2 was determined through ELISA as follows: A rabbit anti-Cdc2 antibody solution, which had been diluted 200-fold with 50 mM carbonate-bicarbonate buffer (pH 9.6), was applied to a 96-well maxisorp plastic plate in an amount of 50 μL/well, and statically kept overnight at 4° C. so as to fix the antibody on the plate. Next, this was washed three times with PBS, and 5% BSA/PBS was added thereto in an amount of 300 μL/well, and statically kept at room temperature for 2 hours, and then again washed three times with PBS. A mouse anti-Cdc2 antibody solution that had been diluted 100-fold with 1% BSA/TBS-T was added to it in an amount of 50 μL/well, and the cell solution was added thereto in an amount of 10 μL/well and statically kept overnight at 4° C. Next, this was washed three times with 0.1% BSA/TBS-T, and then a horseradish peroxidase-labeled anti-mouse IgG antibody solution that had been diluted 2000-fold with 1% BSA/TBS-T was added thereto in an amount of 70 μL/well, and statically kept at room temperature for 3 hours. Finally, this was washed five times with 0.1% BSA/TBS-T, then a substrate of sure blue reserve TMB peroxidase was added to it in an amount of 100 μL/well, and left for coloration in a dark place at room temperature for 15 minutes. Then, 1 M hydrochloric acid was added to it in an amount of 100 μL/well to stop the reaction, and this was analyzed through colorimetry. […]

[2] = system: Cdc2 (Cdk1) tyrosine 15 phosphorylation in NCI-H1299 cells; experiment: Cdc2 (Cdk1) tyrosine 15-phosphorylation-inhibitory effect in camptothecin-treated NCI-H1299 cells (ELISA); format: cell-based; settings: Homo sapiens, camptothecin 200 nM 16 hours, then test compound with nocodazole 8 hours, read-out: Cdc2-Y15 Phosphorylation-Inhibitory Effect (H1299, + camptothecin) (EC50)
Source text: as §1, §2, §3, §4
In the method of using NCI-H1299 cells, the cells were suspended in RPMI1640 containing 10% FBS, and the cell suspension was applied to a 96-well Nunclondelta-processed plastic plate (bought from Nunc), in an amount of 2000 cells/100 μL/well, in which the cells were incubated overnight in 5% CO2-95% air at 37° C. Camptothecin was dissolved in dimethylsulfoxide (DMSO), and diluted with RPMI1640 containing 10% FBS, and then this was applied to the plate on which the cells had been previously sowed, in an amount of 50 μL/well in such a manner that the final concentration of camptothecin could be 200 nM. Then, the cells were incubated for 16 hours at 37° C. in 5% CO2-95% air. The test compound was stepwise diluted with DMSO, then diluted with 4000 nM nocodazole-containing RPMI1640 containing 10% FBS, and applied to the plate on which the camptothecin-treated cells had been sowed, in an amount of 50 μL/well. The cells were incubated for 8 hours at 37° C. in 5% CO2-95% air, then the medium was removed, and a cytolytic buffer was added to the plate in an amount of 100 μL/well, shaken at 4° C. for 2 hours, then frozen at −80° C., and melted to give a cell solution. Cdc2 and tyrosine 15-phosphorylated Cdc2 in the cell solution were determined through enzyme-linked immunosorbent assay (ELISA), and the ratio of tyrosine 15-phosphorylated Cdc2 to Cdc2 was calculated to obtain the 50% phosphorylation-inhibitory concentration of the test compound to the cells (EC50, nM). The cytolytic buffer used herein is an aqueous solution containing 20 mM Hepes (pH 7.5), 150 mM sodium chloride, 1 mM disodium ethylenediaminetetraacetate, 0.1% polyoxyethylene (10) octylphenyl ether, 1% protease inhibitor cocktail, 1 mM dithiothreitol, 2 mM sodium orthovanadate, 10 mM sodium fluoride and 10 mM glycerol diphosphate. Cdc2 was determined through ELISA as follows: A rabbit anti-Cdc2 antibody solution, which had been diluted 200-fold with 50 mM carbonate-bicarbonate buffer (pH 9.6), was applied to a 96-well maxisorpimmuno plate (bought from Nunc), in an amount of 50 μL/well, and statically kept overnight at 4° C. so as to fix the antibody on the plate. Next, this was washed three times with phosphate-buffered saline (PBS), and 5% bovine serum albumin-containing PBS (5% BSA/PBS) was added thereto in an amount of 300 μL/well, and statically kept at room temperature for 2 hours, and then again washed three times with PBS. A mouse anti-Cdc2 antibody solution that had been diluted 100-fold with 0.05% polyoxyethylene sorbitan monolaurate and 1% BSA-containing Tris-HCl-buffered saline (1% BSA/TBS-T) was added to it in an amount of 50 μL/well, and the cell solution was added thereto in an amount of 5 μL/well and statically kept overnight at 4° C. Next, this was washed three times with 0.05% polyoxyethylene sorbitan monolaurate and 0.1% BSA-containing Tris-HCl-buffered saline (0.1% BSA/TBS-T), and then a horseradish peroxidase-labeled anti-mouse IgG antibody solution that had been diluted 2000-fold with 1% BSA/TBS-T was added thereto in an amount of 70 μL/well, and statically kept at room temperature for 3 hours. […]

SMILES	EC50 [1] [nM]	EC50 [2] [nM]
C=CCn1c(=O)c2cnc(Nc3ccc(N4CCN(C)CC4)cc3)nc2n1-c1cccc(C(=O)N(C)C)c1 [Example 1, 3-(2-allyl-6-{[4-(4-methylpiperazin-1-yl)phenyl]amino}-3-oxo-1,2-dihydro-3H-pyrazolo[3,4-d]pyrimidin-1-yl)-N,N-dimethylbenzamide]	143	104
C=CCn1c(=O)c2cnc(Nc3ccc(N4CCN(C)CC4)cc3)nc2n1-c1cccc(C(C)(C)O)c1 [Example 19, 2-allyl-1-[3-(1-hydroxy-1-methylethyl)phenyl]-6-{[4-(4-methylpiperazin-1-yl)phenyl]amino}-1,2-dihydro-3H-pyrazolo[3,4-d]pyrimidin-3-one]	350	247
C=CCn1c(=O)c2cnc(Nc3ccc(N4CCN(C)CC4)c(CO)c3)nc2n1-c1ccccn1 [Example 29, 2-allyl-6-{[3-hydroxymethyl-4-(4-methylpiperazin-1-yl)phenyl]amino}-1-pyridin-2-yl-1,2-dihydro-3H-pyrazolo[3,4-d]pyrimidin-3-one]		188
C=CCn1c(=O)c2cnc(Nc3ccc(N4CCN(C)CC4)cc3)nc2n1-c1cccc(CN(C)S(C)(=O)=O)n1 [Example 99, N-{[6-(2-allyl-6-{[4-(4-methylpiperazin-1-yl)phenyl]amino}-3-oxo-1,2-dihydro-3H-pyrazolo[3,4-d]pyrimidin-1-yl)pyridin-2-yl]methyl}-N-methylmethanesulfonamide]	122	86
C#CCn1c(=O)c2cnc(Nc3ccc(N4CCN(C)CC4)cc3)nc2n1-c1cccc(C(C)(C)O)n1 [Example 113, 1-[6-(1-hydroxy-1-methylethyl)pyridin-2-yl]-6-{[4-(4-methylpiperazin-1-yl)phenyl]amino}-2-(2-propynyl)-1,2-dihydro-3H-pyrazolo[3,4-d]pyrimidin-3-one]	8	

Further lines, results first:

EC50 [1] [nM]	EC50 [2] [nM]	SMILES
	114	C=CCn1c(=O)c2cnc(Nc3ccc(N4CCN(C)CC4)cc3)nc2n1-c1cccc(CN(C)C)c1 [Example 26, 2-allyl-1-[3-(dimethylaminomethyl)phenyl]-6-{[4-(4-methylpiperazin-1-yl)phenyl]amino}-1,2-dihydro-3H-pyrazolo[3,4-d]pyrimidin-3-one]
	46	C=CCn1c(=O)c2cnc(Nc3ccc(N4CCN(C)CC4)c(C)c3)nc2n1-c1cccc(CN(C)C)n1 [Example 52, 2-allyl-1-{6-[(dimethylamino)methyl]pyridin-2-yl}-6-{[3-methyl-4-(4-methylpiperazin-1-yl)phenyl]amino}-1,2-dihydro-3H-pyrazolo[3,4-d]pyrimidin-3-one]
39	83	C=CCn1c(=O)c2cnc(Nc3ccc(N4CCN(C)CC4)c(C)c3)nc2n1-c1cccc(OCCO)n1 [Example 98, 2-allyl-1-[6-(2-hydroxyethoxy)pyridin-2-yl]-6-{[3-methyl-4-(4-methylpiperazin-1-yl)phenyl]amino}-1,2-dihydro-3H-pyrazolo[3,4-d]pyrimidin-3-one]
	93	Cc1cc(Nc2ncc3c(=O)n(Cc4ccccc4)n(-c4ccccc4)c3n2)ccc1N1CCN(C)CC1 [Example 111, 2-benzyl-6-{[3-methyl-4-(4-methylpiperazin-1-yl)phenyl]amino}-1-phenyl-1,2-dihydro-3H-pyrazolo[3,4-d]pyrimidin-3-one]
